Data reported in ChEMBL document CHEMBL1136015, “Inhibitors of human histone deacetylase: synthesis and enzyme and cellular activity of straight chain hydroxamates” (J Med Chem, 2002).
Square brackets hold non-standard residues; d marks the D form. Peptide text beside a SMILES is read from it. Aoe = N[C@@H](CCCCCC(=O)[C@@H]1CO1)C(=O)O

Legend:
Histone deacetylase [1] = test: Concentration required to inhibit the partially purified HDAC enzyme by 50% obtained from H1299 cell lysate; type: functional, cell-based, Homo sapiens
HCT-116 [2] = test: Concentration required to inhibit the HCT116 cell growth by 50%.; type: functional, cell-based; settings: Homo sapiens
Histone deacetylase [3] = test: Concentration required to inhibit human Histone deacetylase (HDAC) enzyme by 50%; type: protein assay
Histone deacetylase [4] = test: Induction of p21 using Histone deacetylase inhibitors; type: protein assay, Homo sapiens
NCI-H1299 = test: Concentration required to inhibit the lung H1299 cell growth by 50%,P53 status of cell line used was deleted.; settings: Homo sapiens
LS174T = test: Concentration required to inhibit the colon LS 174T cell growth by 50%,P53 status of cell line used was […].; type: functional, cell-based; settings: Homo sapiens
HCT-116 [5] = test: Concentration required to inhibit the colon HCT116 cell growth by 50%,P53 status of cell line used was wild-type.; type: functional, cell-based; settings: Homo sapiens
[6] = Concentration required to inhibit the breast MDA-MB-435S cell growth by 50%,P53 status of cell line used was mutant-type.; type: functional; settings: Homo sapiens
A-431 = test: Concentration required to inhibit the epidermoid A431 cell growth by 50%, P53 status of cell line used was mutant.; settings: Homo sapiens
A549 = test: Concentration required to inhibit the lung A549 cell growth by 50%,P53 status of cell line used was wild-type.; type: functional, cell-based; settings: Homo sapiens
T-24 = test: Concentration required to inhibit the bladder T24 cell growth by 50%,P53 status of cell line used was mutant.; settings: Homo sapiens
SW-620 = test: Concentration required to inhibit the colon SW 620 cell growth by 50%,P53 status of cell line used was mutant-type.; type: functional, cell-based; settings: Homo sapiens

IC50 (Histone deacetylase [1]) [nM] | IC50 (HCT-116 [2]) [nM] | IC50 (Histone deacetylase [3]) [nM] | AC50 (Histone deacetylase [4]) [nM] | SMILES | also measured
> 10000 | 5400 | 306 | 8900 | O=C(CCCCCCC(=O)Nc1ccncc1)NO | –
– | – | 443 | > 10000 | CN(CCCCCC(=O)NO)C(=O)c1ccc(N(C)C)cc1 | –
– | – | > 10000 | > 10000 | CN(C)c1ccc(C(=O)NCCCCC(=O)NO)cc1 | –
– | – | > 10000 | > 10000 | CONC(=O)CCCCCNC(=O)c1ccccc1 | –
> 10000 | > 10000 | 279 | 2400 | COc1ccc(NC(=O)CCCCCCC(=O)NO)cc1 | –
> 10000 | 1720 | 270 | 4100 | O=C(O)CCCCCCC(=O)c1ccccc1 | –
– | – | > 10000 | > 10000 | NNC(=O)CCCCCNC(=O)c1ccccc1 | –
– | 2000 | – | – | O=C(CCCCCCC(=O)Nc1ccccn1)NO | –
– | – | 369 | > 10000 | O=C(CCCCCNC(=O)c1ccc(Cl)cc1)NO | –
2180 | 500 | 145 | 1600 | CN(C)c1ccc(C(=O)NCCCCCCCC(=O)NO)cc1 | –
– | – | 515 | 7500 | O=C(CCCCCN1C(=O)c2ccccc2C1=O)NO | –
– | 6500 | – | – | O=C(CCCCCCC(=O)Nc1cccnc1)NO [PYROXAMIDE] | –
– | – | 1556 | > 10000 | O=C(CCCCCNC(=O)c1ccc([N+](=O)[O-])cc1)NO | –
– | 13 | – | – | CC(/C=C/C(=O)NO)=C\[C@@H](C)C(=O)c1ccc(N(C)C)cc1 [TRICHOSTATIN] | –
– | – | 265 | > 10000 | O=C(CCCCCNC(=O)c1ccc(-c2ccccc2)cc1)NO | –
> 10000 | 1040 | 568 | 5700 | O=C(CCCCCCNC(=O)c1ccccc1)NO | –

SMILES | IC50 (Histone deacetylase [1]) [nM] | IC50 (HCT-116 [2]) [nM] | IC50 (Histone deacetylase [3]) [nM] | AC50 (Histone deacetylase [4]) [nM] | also measured
O=C1N[C@@H](Cc2ccccc2)C(=O)N2CCC[C@@H]2C(=O)N[C@@H](CCCCCC(=O)[C@@H]2CO2)C(=O)N[C@H]1Cc1ccccc1 [TRAPOXIN B] (cyclo(FF[dP][Aoe])) | – | 2 | – | – | –
CN(C)c1ccc(C(=O)NCCCCCCC(=O)NO)cc1 | 1620 | 210 | 46 | 2100 | IC50 (NCI-H1299): 3900 nM; IC50 (LS174T): 1500 nM; IC50 (HCT-116 [5]): 200 nM; IC50 [6]: 1300 nM; IC50 (A-431): 2300 nM; IC50 (A549): 800 nM; IC50 (T-24): 3800 nM; IC50 (SW-620): 700 nM
O=C(CCCCCNC(=O)c1ccc(OCc2ccccc2)cc1)NO | – | – | 220 | > 10000 | –
